Reference: patent US20190364896A1, “SYNERGISTIC WEED CONTROL FROM APPLICATIONS OF PYRIDINE CARBOXYLIC ACID HERBICIDES AND ALS INHIBITORS” (Dow AgroSciences LLC, priority 2014, published 2019)

How the values were obtained:
[1] = test system: spring rape (Brassica napus, BRSNN); assay: Postemergence herbicidal activity, greenhouse trial (visual injury 0-100%); assay type: in vivo
[2] = test system: barnyardgrass (Echinochloa crus-galli, ECHCG); assay: as above; assay type: in vivo
Procedure, shortened: (§1)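 Greenhouse plants at the 2nd–3rd true-leaf stage (14 h photoperiod, ~23/22 °C) were track-sprayed at 187 L/ha with acetone/DMSO stocks diluted in 1.5% v/v crop oil concentrate. Rates were g ae/ha for component (a) and g ai/ha for (b). Injury versus solvent-blank controls was rated visually at 20–22 d, with Colby's equation giving expected mixture effects.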

[3] = test system: common lambsquarters (Chenopodium album L., CHEAL); assay: as above; assay type: in vivo
Procedure, shortened: as §1

[4] = test system: wild pansy (Viola tricolor, VIOTR); assay: as above; assay type: in vivo; details: Viola tricolor, post-emergence, VIOTR, read-out: % visual injury Obs
Procedure, shortened: as §1

[5] = test system: thistle (Cirsium arvense, CIRAR); assay: as above; assay type: in vivo; details: Cirsium arvense, post-emergence, read-out: % visual injury Obs
Procedure, shortened: as §1

[6] = test system: kochia (Kochia scoparia, KCHSC); assay: as above; assay type: in vivo
Procedure, shortened: as §1

[7] = test system: nutsedge (Cyperus esculentus, CYPES); assay: as above; assay type: in vivo; details: Cyperus, post-emergence, read-out: % visual injury Obs
Procedure, shortened: (§2)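 Greenhouse-grown plants at the second to third true leaf stage were sprayed with two-way mixtures in 1.5% v/v Agri-dex crop oil concentrate at 187 L/ha; rates in g ae/ha for component (a) and g ai/ha for component (b). Injury scored visually 0–100% versus solvent-blank controls after 20–22 d, with expected mixture effects from Colby's equation.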

[8] = test system: ivyleaf morning-glory (Ipomoea hederacea, IPOHE); assay: as above; assay type: in vivo
Procedure, shortened: as §1

[9] = test system: winter wheat (Triticum aestivum, TRZAW); assay: Postemergence crop injury (phytotoxicity), greenhouse trial (visual injury 0-100%)
Description: (§3) Seeds of the desired test plant species were planted in Sun Gro MetroMix® 306 planting mixture, which typically has a pH of 6.0 to 6.8 and an organic matter content of about 30 percent, in plastic pots with a surface area of 103.2 square centimeters (cm^2). […] The plants were grown for 7-36 days (d) in a greenhouse with an approximate 14-hour (h) photoperiod which was maintained at about 23° C. during the day and 22° C. during the night. Nutrients and water were added on a regular basis and supplemental lighting was provided with overhead metal halide 1000-Watt lamps as necessary. The plants were employed for testing when they reached the second or third true leaf stage.
(§4) Weighed amounts of technical material were dissolved in a volume of 97:3 volume per volume (v/v) acetone/dimethyl sulfoxide (DMSO) to stock solutions. […] The concentrated stock solutions were diluted with an aqueous mixture of 1.5% v/v of Agri-dex crop oil concentrate to provide the appropriate application rates. Compound requirements are based upon a 12 milliliter (mL) application volume at a rate of 187 liters per hectare (L/ha). Spray solutions of the experimental compound mixtures were prepared by adding the stock solutions to the appropriate amount of dilution solution to form a 12 mL spray solution in two-way combinations. Formulated compounds were applied to the plant material with an overhead Mandel track sprayer equipped with 8002E nozzles calibrated to deliver 187 L/ha over an application area of 0.503 square meters (m^2) at a spray height of 18 inches (43 centimeters (cm)) above average plant canopy. Control plants were sprayed in the same manner with the solvent blank. Application rates for component (a) are in g ae/ha, and application rates for component (b) are in g ai/ha.
(§5) The treated plants and control plants were placed in a greenhouse as described above and watered by sub-irrigation to prevent wash-off of the test compounds. After 20-22 d, the condition of the test plants as compared with that of the control plants was determined visually and scored on a scale of 0 to 100 percent where 0 corresponds to no injury and 100 corresponds to complete kill. The condition of the test plants was compared with that of the control plants as determined visually and scored on a scale of 0 to 100 percent, where 0 corresponds to no injury and 100 corresponds to complete kill. Colby's equation was used to determine the herbicidal effects expected from the mixtures.
Compound 2 was combined with florasulam and applied to winter wheat (TRZAW) and the phytotoxicity of the herbicidal composition was measured. In addition, the efficacy of the herbicidal composition on poinsettia (Euphorbia heterophylla, EPHHL) and […] (Cyperus esculentus, CYPES) was evaluated.
Weighed amounts of technical or formulated material (emulsifiable concentrate (EC) or soluble concentrate (SL)) were dissolved in a volume of 97:3 volume per volume (v/v) acetone/dimethyl sulfoxide (DMSO) to stock solutions. […] The concentrated stock solutions were diluted with an aqueous mixture of 1.5% v/v of Agri-dex crop oil concentrate to provide the appropriate application rates. Compound requirements are based upon a 12 milliliter (mL) application volume at a rate of 187 liters per hectare (L/ha). Spray solutions of the experimental compound mixtures were prepared by adding the stock solutions to the appropriate amount of dilution solution to form a 12 mL spray solution in two-way combinations. […]

[10] = test system: pigweed (Amaranthus retroflexus, AMARE); assay: Postemergence herbicidal activity, greenhouse trial (visual injury 0-100%); assay type: in vivo
Procedure, shortened: as §1

[11] = test system: poinsettia (Euphorbia heterophylla, EPHHL); assay: as above; assay type: in vivo
Procedure, shortened: as §2

[12] = test system: maize (Zea mays, ZEAMX); assay: Postemergence crop injury (phytotoxicity), greenhouse trial (visual injury 0-100%)
Description: as §3
(§6) Weighed amounts of technical or formulated material (emulsifiable concentrate (EC) or soluble concentrate (SL)) were dissolved in a volume of 97:3 volume per volume (v/v) acetone/dimethyl sulfoxide (DMSO) to stock solutions. […] The concentrated stock solutions were diluted with an aqueous mixture of 1.5% v/v of Agri-dex crop oil concentrate to provide the appropriate application rates. Compound requirements are based upon a 12 milliliter (mL) application volume at a rate of 187 liters per hectare (L/ha). Spray solutions of the experimental compound mixtures were prepared by adding the stock solutions to the appropriate amount of dilution solution to form a 12 mL spray solution in two-way combinations. Formulated compounds were applied to the plant material with an overhead Mandel track sprayer equipped with 8002E nozzles calibrated to deliver 187 L/ha over an application area of 0.503 square meters (m^2) at a spray height of 18 inches (43 centimeters (cm)) above average plant canopy. Control plants were sprayed in the same manner with the solvent blank. Application rates for component (a) are in g ae/ha, and application rates for component (b) are in g ai/ha.
as §5
(§7) Compound 1 was formulated as an EC and was combined with florasulam, cloransulam, diclosulam, flumetsulam, penoxsulam, or pyroxsulam. Compound 2 was formulated as an EC and was combined with florasulam or pyroxsulam. The mixtures were applied to winter wheat (TRZAW), common rice (ORYSA), maize (ZEAMX), and the phytotoxicity of the herbicidal compositions was measured. In addition, the efficacy of the herbicidal compositions on blackgrass (Alopecurus myosuroides, ALOMY), pigweed (Amaranthus retrollexus, AMARE), wild oat (Avena fatua, AVEFA), common lambsquarters (Chenopodium album L., CHEAL), thistle (Cirsium arvense CIRAR), nutsedge (Cyperus esculentus, CYPES), barnyardgrass (Echinochloa crus-galli, ECHCG), poinsettia (Euphorbia heterophylla, EPHHL), ivyleaf morning-glory (Ipomoea hederacea, IPOHE), kochia (Kochia scoparia, KCHSC), wild buckwheat (Polygonum convolvulus, POLCO), grain sorghum (Sorghum vulgare, SORVU), chickweed (Stellaria media, STEME), wild pansy (Viola tricolor, VIOTR), was evaluated.
(§8) Weighed amounts of technical material were dissolved in a volume of 97:3 volume per volume (v/v) acetone/dimethyl sulfoxide (DMSO) to stock solutions. […] The concentrated stock solutions were diluted with an aqueous mixture of 1.5% v/v of Agri-dex crop oil concentrate to provide the appropriate application rates. Compound requirements are based upon a 12 milliliter (mL) application volume at a rate of 187 liters per hectare (L/ha). […]

[13] = test system: common rice (Oryza sativa, ORYSA); assay: as above
Description: as §3, §6, §5, §7, §8

[14] = test system: turnip (Brassica rapa, BRSRR); assay: Postemergence herbicidal activity, greenhouse trial (visual injury 0-100%); assay type: in vivo; details: 11.2 g ai/ha
Description: as §3, §4, §5
(§9) Compound 1 was formulated as an EC and was combined with imazamox, imazamethabenz, imazapic, imazapyr or imazethapyr. The mixtures were applied to winter wheat (TRZAW) and/or maize (ZEAMX), and the phytotoxicity of the herbicidal compositions was measured. In addition, the efficacy of the herbicidal compositions on blackgrass (Alopecurus myosuroides, ALOMY), wild oat (Avena fatua, AVEFA), winter rape (Brassica napus, BRSNW), spring rape (Brassica napus, BRSNN), turnip (Brassica rapa, BRSRR), thistle (Cirsium arvense, CIRAR), large crabgrass (Digitaria sanguinalis, DIGSA), pigweed (Amaranthus retrollexus, AMARE), common lambsquarters (Chenopodium album L., CHEAL), poinsettia (Euphorbia heterophylla, EPHHL), ivyleaf morning-glory (Ipomoea hederacea, IPOHE), kochia (Kochia scoparia, KCHSC), wild buckwheat (Polygonum convolvulus, POLCO), grain sorghum (Sorghum vulgare, SORVU), chickweed (Stellaria media, STEME), wild pansy (Viola tricolor, VIOTR), sunflower (Helianthus annuus, HELAN), giant foxtail (Setaria faberi, SETFA), soybean (Glycine max, GLXMA), rutabaga (Brassica napus var. napobrassica, BRSNA) and barnyardgrass (Echinochloa crus-galli, ECHCG) was evaluated.

[15] = test system: wild buckwheat (Polygonum convolvulus, POLCO); assay: as above; assay type: in vivo; details: Fallopia convolvulus, post-emergence, 11.2 g ai/ha; read-out: % visual injury Obs
Procedure, shortened: as §1

[16] = test system: chickweed (Stellaria media, STEME); assay: as above; assay type: in vivo
Procedure, shortened: as §1

[17] = test system: winter rape (Brassica napus, BRSNW); assay: as above; assay type: in vivo
[18] = test system: giant foxtail (Setaria faberi, SETFA); assay: as above; assay type: in vivo; details: SETFA; nicosulfuron 17.5 g ai/ha
[19] = test system: wild oat (Avena fatua, AVEFA); assay: as above; assay type: in vivo; details: 100 g ai/ha
Procedure, shortened: as §1

[20] = test system: grain sorghum (Sorghum vulgare, SORVU); assay: as above; assay type: in vivo; details: 100 g ai/ha
Procedure, shortened: as §1

[21] = test system: sunflower (Helianthus annuus, HELAN); assay: as above; assay type: in vivo; details: 100 g ai/ha
[22] = test system: soybean (Glycine max, GLXMA); assay: as above; assay type: in vivo; details: 100 g ai/ha
Description: as §3, §4, §5, §9

COc1nc(C)nc(NC(=O)NS(=O)(=O)c2ccccc2Cl)n1 [Chlorsulfuron, chlorsulfuron]
% visual injury Obs ([1]; BRSNN, chlorsulfuron 2.2 g ai/ha): 93% | pest or weed control ([2]; Echinochloa crus-galli, post-emergence, ECHCG, chlorsulfuron 2.2 g ai/ha, read-out: % visual injury Obs): 0% | pest or weed control ([3]; Chenopodium album, post-emergence, CHEAL, chlorsulfuron 2.2 g ai/ha, read-out: % visual injury Obs): 90% | pest or weed control ([4]; chlorsulfuron 2.2 g ai/ha): 60% | pest or weed control ([5]; CIRAR, chlorsulfuron 2.2 g ai/ha): 90% | pest or weed control ([6]; Bassia scoparia, post-emergence, KCHSC, chlorsulfuron 2.2 g ai/ha, read-out: % visual injury Obs): 50% | pest or weed control ([7]; CYPES, chlorsulfuron 2.2 g ai/ha): 0%

COc1ncc(F)c2nc(S(=O)(=O)Nc3c(F)cccc3F)nn12 [Florasulam, florasulam]
pest or weed control at 1.25 g/ha ([3]; Chenopodium album, post-emergence, read-out: % visual injury Obs): 0% | pest or weed control at 1.25 g/ha ([8]; Ipomoea hederacea, post-emergence, read-out: % visual injury Obs): 98% | % visual injury Obs ([9]; 1.25 g ai/ha): 0% | % visual injury Obs ([9]; 2.5 g ai/ha): 0% | pest or weed control at 1.25 g/ha ([10]; Amaranthus retroflexus, post-emergence, read-out: % visual injury Obs): 75% | pest or weed control at 2.5 g/ha ([6]; Bassia scoparia, post-emergence, read-out: % visual injury Obs): 60% | pest or weed control at 1.25 g/ha ([11]; Euphorbia heterophylla, post-emergence, read-out: % visual injury Obs): 0% | pest or weed control at 1.25 g/ha [7]: 15% | pest or weed control at 2.5 g/ha [7]: 75% | % visual injury Obs ([12]; 1.25 g ai/ha): 0% | % visual injury Obs ([12]; 2.5 g ai/ha): 0% | % visual injury Obs ([13]; 1.25 g ai/ha): 0% | % visual injury Obs ([13]; 2.5 g ai/ha): 0%

COCc1cnc(C2=NC(C)(C(C)C)C(=O)N2)c(C(=O)O)c1 (stereo not shown) [Imazamox, imazamox]
% visual injury Obs ([1]; 11.2 g ai/ha): 75% | % visual injury Obs [14]: 70% | pest or weed control at 11.2 g/ha ([5]; 11.2 g ai/ha): 70% | pest or weed control at 11.2 g/ha [15]: 65%

COc1cc(OC)nc(NC(=O)NS(=O)(=O)c2ncccc2C(=O)N(C)C)n1 [Nicosulfuron, nicosulfuron]
pest or weed control at 17.5 g/ha ([16]; Stellaria media, post-emergence, STEME, nicosulfuron 17.5 g ai/ha, read-out: % visual injury Obs): 30% | pest or weed control at 17.5 g/ha ([8]; Ipomoea hederacea, post-emergence, IPOHE, nicosulfuron 17.5 g ai/ha, read-out: % visual injury Obs): 30% | pest or weed control at 17.5 g/ha ([4]; nicosulfuron 17.5 g ai/ha): 40% | % visual injury Obs ([17]; BRSNW, nicosulfuron 17.5 g ai/ha): 85% | % visual injury Obs [18]: 80% | pest or weed control at 17.5 g/ha ([6]; Bassia scoparia, post-emergence, KCHSC, nicosulfuron 17.5 g ai/ha, read-out: % visual injury Obs): 5% | % visual injury Obs ([12]; ZEAMX, nicosulfuron 17.5 g ai/ha): 0%

imazamethabenz
% visual injury Obs ([16]; 100 g ai/ha): 10% | % visual injury Obs [19]: 20% | % visual injury Obs ([2]; 100 g ai/ha): 5% | % visual injury Obs [20]: 0% | % visual injury Obs ([3]; 100 g ai/ha): 20% | % visual injury Obs ([8]; 100 g ai/ha): 0% | % visual injury Obs [21]: 5% | % visual injury Obs [22]: 30% | % visual injury Obs ([17]; 100 g ai/ha): 65% | % visual injury Obs ([10]; 100 g ai/ha): 0% | % visual injury Obs ([6]; 100 g ai/ha): 0% | % visual injury Obs ([11]; 100 g ai/ha): 50%
